# Key:
# Test in all cases: relative viability (nuclei count vs DMSO), 5 days (fraction); higher = more cells survive
# Trametinib + Pemetrexed = compound: CC(=O)Nc1cccc(-n2c(=O)n(C3CC3)c(=O)c3c(Nc4ccc(I)cc4F)n(C)c(=O)c(C)c32)c1 [Trametinib] + Nc1nc2[nH]cc(CCc3ccc(C(=O)N[C@@H](CCC(=O)O)C(=O)O)cc3)c2c(=O)[nH]1 [Pemetrexed] (partner 0.2 µM)
# Outline: (§1)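 Lung cancer cell lines in 1536-well plates were dosed by pin tool the day after seeding, either with one drug alone or with a fixed anchor-drug dose plus five library-drug doses (not always all listed) in √10 steps. After 5 days, cells were fixed and their nuclei stained in one step (final 0.05% Triton X-100, 1% formaldehyde, 1 ug/ml Hoechst), then counted on 4× images. Relative viability is the nuclei count in treated wells divided by that in vehicle wells. Values are medians of duplicate plates.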
# Trametinib + Vorinostat = compound: CC(=O)Nc1cccc(-n2c(=O)n(C3CC3)c(=O)c3c(Nc4ccc(I)cc4F)n(C)c(=O)c(C)c32)c1 [Trametinib] + O=C(CCCCCCC(=O)Nc1ccccc1)NO [Vorinostat] (partner 1 µM)
# Outline: as §1
# [1] = compound: CN1C=C(C2=CC=CC=C21)/C=C\3/C4=C(C=CC=N4)NC3=O + CC(=O)c1c(C)c2cnc(Nc3ccc(N4CCNCC4)cn3)nc2n(C2CCCC2)c1=O [Palbociclib] (partner 0.5 µM)
# Outline: as §1
# [2] = compound: CN1C=C(C2=CC=CC=C21)/C=C\3/C4=C(C=CC=N4)NC3=O + CC(C)C[C@H](NC(=O)[C@H](Cc1ccccc1)NC(=O)c1cnccn1)B(O)O [Bortezomib] (partner 0.002 µM)
# Outline: as §1
cell line,measurement,setting,value
UMC-11,relative viability,Trametinib + Pemetrexed; first compound 0.0025 µM,0.804
same,relative viability,Trametinib + Pemetrexed; first compound 0.007906 µM,0.741
same,relative viability,Trametinib + Pemetrexed; first compound 0.07906 µM,0.719
same,relative viability,Trametinib + Pemetrexed; first compound 0.25 µM,0.701
same,relative viability,Trametinib + Vorinostat; first compound 0.0025 µM,0.327
same,relative viability,Trametinib + Vorinostat; first compound 0.007906 µM,0.352
same,relative viability,Trametinib + Vorinostat; first compound 0.07906 µM,0.313
same,relative viability,Trametinib + Vorinostat; first compound 0.25 µM,0.294
same,relative viability,[1]; first compound 0.02 µM,0.3
same,relative viability,[1]; first compound 0.06325 µM,0.318
same,relative viability,[1]; first compound 0.2 µM,0.358
same,relative viability,[1]; first compound 0.6325 µM,0.344
same,relative viability,[1]; first compound 2 µM,0.332
same,relative viability,[2]; first compound 0.02 µM,0.668
same,relative viability,[2]; first compound 0.06325 µM,0.263
same,relative viability,[2]; first compound 0.2 µM,0.572
same,relative viability,[2]; first compound 0.6325 µM,0.761
same,relative viability,[2]; first compound 2 µM,0.926

# — the supplement of paper PMC10307832
